Assay results reported in publication PMC6112376, “Comprehensive Analyses and Prioritization of Tox21 10K Chemicals Affecting Mitochondrial Function by in-Depth Mechanistic Studies” (Environmental Health Perspectives, 2018).
Like-named read-outs stand apart in the source and are kept apart here.

How the values were obtained:
[1] = system: HepG2 cells; details: cited from earlier work
[2] = system: HepG2 cells; assay: cells; details: Homo sapiens; for IC50: HepG2, read-out: MMP assays IC50 (µM) HepG2; for Emax: HepG2, read-out: MMP assays efficacy (%) HepG2
[3] = system: rat primary hepatocytes; assay: MMP assay in rat primary hepatocytes; details: for MMP assays IC50 (µM) Rat Hepatocytes / MMP assays efficacy (%) Rat Hepatocytes: mean ± SD of three experiments; for IC50: Rattus norvegicus, Hepatocyte, read-out: MMP assays IC50 (µM) Rat Hepatocytes
[4] = read-out: MMP assays IC50 (µM), qHTS-HepG2
[5] = read-out: MMP assays IC50 (µM) qHTS-HepG2

Structure (SMILES)	MMP assays efficacy (%) qHTS-HepG2 [1]	IC50 [1, 4]	IC50 [2]	Emax [2]	MMP assays IC50 (µM) Rat Hepatocytes [3]	MMP assays efficacy (%) Rat Hepatocytes [3]	IC50 [3]	IC50 [1, 5]
CCCOC(=O)c1cc(O)c(O)c(O)c1 [Propyl gallate]	-88±15%	42.3 ± 3.93 µM	35.5 µM	97%	inactive	inactive		
C(=C(c1ccccc1)c1ccccc1)c1ccccc1 [Triphenylethylene]	-88±31%	35.7 ± 14.8 µM	31.6 µM	54%		-74±30%	15.2 ± 11.5 µM	
O=c1cc(-c2ccccc2)oc2cc(O)cc(O)c12 [Chrysin]	-103±9%		7.08 µM	105%		-78±36%	30.6 ± 28.4 µM	5.05 ± 2.76 µM
Nc1cc(Cl)c(O)c(Cl)c1 [4-Amino-2,6-dichlorophenol]	-97±9%		15.8 µM	120%		-57±8%	29.6 ± 27.8 µM	17.2 ± 13.4 µM
CC(=O)Nc1ccc(S(=O)(=O)Nc2ccc([N+](=O)[O-])cc2)cc1 [Sulfanitran]	-54±11%	26.6 ± 8.77 µM	17.3 µM	67%		-63±14%	19.5 ± 2.25 µM	
Cc1ccc2c(c1[N+](=O)[O-])C(=O)c1ccccc1C2=O [Compound 2-Methyl-1-nitroanthraquinone]	-63±13%		2.77 µM	88%		-84±16%	16.9 ± 14.7 µM	1.34 ± 0.15 µM
O=C(Nc1ccc(O)cc1)c1ccccc1O [Osalmid]	-96±3%	6.68 ± 0.77 µM	6.31 µM	101%		-93±20%	30 ± 21.3 µM	
Oc1ccc(Cl)c2cccnc12 [Cloxyquin]	-58±10%		15.5 µM	79%	inactive	inactive		16.8 ± 5.94 µM
CC(=O)Oc1cccc2c1C(=O)c1c(OC(C)=O)cc(C(=O)O)cc1C2=O [Diacerein]	-81±16%		17.3 µM	61%		-70±14%	14.2 ± 11.3 µM	20.6 ± 8.26 µM
CC(C)(C)c1ccc(O)c(O)c1 [Compound 4-tert-Butylcatechol]	-103±20%		31.6 µM	90%	inactive	inactive		34.3 ± 15 µM
COC(=O)C1=C(C)NC(C)=C(C(=O)OCCN2CCN(C(c3ccccc3)c3ccccc3)CC2)C1c1cccc([N+](=O)[O-])c1 (stereo not drawn) [Manidipine]	-95±13%	12.2 ± 6.82 µM	27.5 µM	98%		-40±8%	20.9 ± 5.06 µM	
CC/C(=C(/CC)c1ccc(O)cc1)c1ccc(O)cc1 [Diethylstilbestrol]	-105±14%			112%			25.2 ± 21.7 µM	
CCOc1ccc(/N=N/c2ccc(N)cc2N)cc1 [Ethoxazene]	-91±7%		2.82 µM	94%		-106±32%	4.96 ± 3.42 µM	2.7 ± 1.13 µM
COc1ccc(/C=C/C(=O)c2ccc(OC)cc2OC)cc1 [Metochalcone]	-72±12%	18.2 ± 10.1 µM	39.8 µM	119%		-82±19%	25.5 ± 18.2 µM	
Nc1ccc(O)c([N+](=O)[O-])c1 [Compound 4-Amino-2-nitrophenol]	-86±33%		14.1 µM	97%		-90±12%	33.5 ± 2.73 µM	15.4 ± 10.6 µM
Cc1c(Nc2ncccc2C(=O)O)cccc1C(F)(F)F [Flunixin meglumine]	-123±14%	9.02 µM	7.4 µM	83%		-107±11%	5.77 ± 4.59 µM	
CCCCC(CC)CN1C(=O)C2C3C=CC(C3)C2C1=O (stereo not drawn) [MGK-264]	-65±7%	15.4 ± 10.5 µM	28.2 µM	84%		-55±25%	17.8 ± 25.1 µM	
O=C1c2ccccc2C(=O)N1SC(Cl)(Cl)Cl [Folpet]	-107±6%	8.25 ± 0.54 µM	14.1 µM	100%			33.7 ± 20.2 µM	
Nc1cccc(N)n1 [2,6-Diaminopyridine]	-68±18%		35.5 µM	84%		-75±28%	20.9 ± 15.7 µM	31.3 ± 10.3 µM
OCc1c2ccccc2cc2ccccc12 [Compound 9-Anthracenemethanol]	-104±23%		19.9 µM	88%		-68±25%	21.7 ± 15.7 µM	34.5 ± 11.5 µM
CCc1c(C(=O)NN2CCCCC2)nn(-c2ccc(Cl)cc2Cl)c1-c1ccc(Br)cc1 [Surinabant]	-97±6%	33.1 ± 16.6 µM	19.9 µM	94%		-81±29%	34.3 ± 22.5 µM	
O=C(Nc1ccc(Cl)cc1)Nc1ccc(Cl)c(C(F)(F)F)c1 [Cloflucarban]	-113±9%		0.44 µM	85%		-95±5%	0.58 ± 0.05 µM	0.6 µM
C[C@@H]1C[C@H]2[C@@H]3CCC4=CC(=O)C=C[C@]4(C)[C@@]3(Cl)[C@@H](O)C[C@]2(C)[C@@]1(OC(=O)c1ccco1)C(=O)CCl [Mometasone furoate]	-101±23%	11.8 ± 0.8 µM	8.3 µM	71%		-21±0%	14 ± 1.14 µM	
Cc1nnc2n1-c1sc(CCc3ccc(CC(C)C)cc3)cc1C(c1ccccc1Cl)=NC2C (stereo not drawn) [Israpafant]		22 ± 1.49 µM	27.5 µM	108%		-55±10%	23.5 ± 5.67 µM	
Oc1ccc(C(c2ccc(O)cc2)(C(F)(F)F)C(F)(F)F)cc1 [Bisphenol AF]	-114±10%		5.01 µM	102%			37.3 ± 6.7 µM	5.44 ± 1.42 µM
C#C[C@]1(O)CC[C@H]2[C@@H]3CCC4=CCCC[C@@H]4[C@H]3CC[C@@]21C [Lynestrenol]	-104±10%	16.6 ± 2.15 µM	7.4 µM	55%	inactive	inactive		
c1ccc(CCCc2ccncc2)cc1 [4-(3-Phenylpropyl)pyridine]	-63±19%		14.1 µM	46%		-82±23%	13 ± 6.83 µM	16.6 ± 6.74 µM
CC(C)=CCOc1ccc(/C=C/C(=O)c2ccc(OCC=C(C)C)cc2OCC(=O)O)cc1 [Sofalcone]	-118±8%	24.6 ± 1.67 µM	17.3 µM	92%		-65±23%	19.5 ± 2.25 µM	
